Experimental data: patent US4812465A, “Triazole derivatives for use as antimycotic agents” (CL Pharma Aktiengesellschaft, priority 1986, dated 1989)
Values after ≈ are worked out from the molar mass of the structure shown.

Experiments:
Assay in all cases: In vitro determination of minimum inhibitory concentration (MIC), serial dilution
Format in all cases: cell-based
Absidia ramosa = conditions: pH 6.0, 22° C., 14 days; for MIC: Lichtheimia ramosa, 336 h, pH 6, Absidia ramosa
Method: (§1) The antimycotic activities of the compounds were measured by in vitro determination of the minimum inhibitory concentration (MIC) for yeasts, molds and dermatophytes.
(§2) 6 dermatophytes, 2 yeasts and 4 molds were used for testing with fungi, as follows:
(§3) The minimum inhibitory concentration (MIC) was determined in serial dilution tests in test tubes. The volume of the liquid nutrient medium in each test tube was 4.5 ml.
(§4) The substances were dissolved in DMSO and diluted with sterile distilled water to 10 concentrations (100, 50, 25, 12.5, 6.25, 3.12, 1.56, 0.78, 0.39 and 0.19 μg/ml). 0.5 ml of each of these dilution steps was added to liquid nutrient medium. Thus, a constant concentration of solvent in all the nutrient media was ensured, irrespective of the active compound concentration.
(§5) A comparison solution which contained only the solvent in appropriate concentration was included when carrying out each of the tests.
(§6) The individual strains were maintained on Sabouraud/beerwort agar slants and, before they were used in a test, they underwent a passage on a modified Sabouraud liquid nutrient medium. The strains were then harvested, washed and converted into a suspension of McFaerland 3 in the case of yeasts and molds and of McFaerland 4-5 in the case of dermatophytes.
(§7) The amount of material inoculated (inoculum) was 100 μl/test tube (inoculated densities: yeasts about 10^3 /ml, molds about 10^4 /ml, dermatophytes about 10^4 /ml). The pH of the liquid nutrient medium was 6.0. After inoculation had taken place the fungi were incubated at 22° C. for 14 days.
(§8) The MIC was then determined. The concentration step at which growth was no longer visible on macroscopic inspection was used for the determination of the MIC. The comparison substance used was 1-(2-(2,4-dichlorophenyl)-2-(2,4-dichlorophenylmethoxy)ethyl)-1H-imidazole(compound A).

Aspergillus fumigatus = conditions: 20160 min, pH 6
Method: as §1, §2, §3, §4, §5, §6, §7, §8

Candida albicans = conditions: 336 h, pH 6, Candida albicans, pH 6.0, 22° C., 14 days, read-out: MIC C.alb
Method: as §1, §2, §3, §4, §5, §6, §7, §8

Candida tropicalis = conditions: 336 h, pH 6, Candida tropicalis, pH 6.0, 22° C., 14 days, read-out: MIC C.trop
Method: as §1, §2, §3, §4, §5, §6, §7, §8

Epidermophyton floccosum = conditions: pH 6.0, 22° C., 14 days; for MIC: 336 h, pH 6, Epidermophyton floccosum
Method: as §1, §2, §3, §4, §5, §6, §7, §8

Microsporum canis = conditions: pH 6.0, 22° C., 14 days; for MIC: 336 h, pH 6, Microsporum canis
Method: as §1, §2, §3, §4, §5, §6, §7, §8

Microsporum gypseum = conditions: Nannizzia gypsea, 336 h, pH 6, Microsporum gypseum; pH 6.0, 22° C., 14 days; read-out: MIC Mi.gyp
Method: as §1, §2, §3, §4, §5, §6, §7, §8

Mucor mucedo minus = conditions: Mucor mucedo, 336 h, pH 6, Mucor mucedo minus; pH 6.0, 22° C., 14 days
Method: as §1, §2, §3, §4, §5, §6, §7, §8

Mucor mucedo plus = conditions: Mucor mucedo, 336 h, pH 6, Mucor mucedo plus; pH 6.0, 22° C., 14 days
Method: as §1, §2, §3, §4, §5, §6, §7, §8

[1] = tested on: Trichophyton mentagrophytes; conditions: pH 6.0, 22° C., 14 days; for MIC: 336 h, pH 6, Trichophyton mentagrophytes
Method: as §1, §2, §3, §4, §5, §6, §7, §8

Trichophyton rubrum = conditions: 336 h, pH 6, Trichophyton rubrum, pH 6.0, 22° C., 14 days
Method: as §1, §2, §3, §4, §5, §6, §7, §8

Trichophyton verrucosum = conditions: 336 h, pH 6, Trichophyton verrucosum, pH 6.0, 22° C., 14 days
Method: as §1, §2, §3, §4, §5, §6, §7, §8

MIC (Absidia ramosa) | MIC Asp.fu. (Aspergillus fumigatus) | MIC (Candida albicans) | MIC (Candida tropicalis) | MIC (Epidermophyton floccosum) | MIC (Microsporum canis) | MIC (Microsporum gypseum) | MIC (Mucor mucedo minus) | MIC (Mucor mucedo plus) | MIC [1] | MIC (Trichophyton rubrum) | MIC (Trichophyton verrucosum) | MIC Abs.ra. (Absidia ramosa; Absidia ramosa) | MIC Ep.flo (Epidermophyton floccosum) | MIC Mi.can (Microsporum canis) | MIC Tri.me. [1] | Structure (SMILES)
6.25 µg/mL (≈ 14.9 µM) | 0,78 μg/ml | 12.5 µg/mL (≈ 29.7 µM) | 12.5 µg/mL (≈ 29.7 µM) | 0.78 µg/mL (≈ 1.86 µM) | 3.12 µg/mL (≈ 7.42 µM) | 0.78 µg/mL (≈ 1.86 µM) | 3.12 µg/mL (≈ 7.42 µM) | 0.78 µg/mL | 0.78 µg/mL (≈ 1.86 µM) | 0.78 µg/mL (≈ 1.86 µM) | 0.78 µg/mL (≈ 1.86 µM) | – | – | – | – | Cc1ccc(SCCCNC(Cn2ccnc2)c2ccc(Cl)cc2Cl)cc1 (centres unmarked) [Compound 92]
12.5 µg/mL (≈ 30.8 µM) | 3,12 μg/ml | 6.25 µg/mL (≈ 15.4 µM) | 3.12 µg/mL (≈ 7.68 µM) | 3.12 µg/mL (≈ 7.68 µM) | 3.12 µg/mL (≈ 7.68 µM) | 3.12 µg/mL (≈ 7.68 µM) | 3.12 µg/mL (≈ 7.68 µM) | 6.25 µg/mL | 25 µg/mL (≈ 61.5 µM) | 1.56 µg/mL (≈ 3.84 µM) | 1.56 µg/mL (≈ 3.84 µM) | – | – | – | – | Clc1ccc(C(Cn2ccnc2)NCCCSc2ccccc2)c(Cl)c1 (centres unmarked) [Compound 90]
100 µg/mL (≈ 245 µM) | 100 µg/mL (≈ 245 µM) | 6.25 µg/mL (≈ 15.3 µM) | 12.5 µg/mL (≈ 30.7 µM) | 6.25 µg/mL (≈ 15.3 µM) | 12.5 µg/mL (≈ 30.7 µM) | 3.12 µg/mL (≈ 7.66 µM) | 6.25 µg/mL (≈ 15.3 µM) | 12.5 µg/mL | 6.25 µg/mL (≈ 15.3 µM) | 3.12 µg/mL (≈ 7.66 µM) | 3.12 µg/mL (≈ 7.66 µM) | – | – | – | – | Clc1ccc(SCCCNC(Cn2cncn2)c2ccc(Cl)cc2)cc1 (centres unmarked) [Compound 99]
100 µg/mL (≈ 227 µM) | 25,0 μg/ml | 25 µg/mL (≈ 56.8 µM) | 12.5 µg/mL (≈ 28.4 µM) | 12.5 µg/mL (≈ 28.4 µM) | 25 µg/mL (≈ 56.8 µM) | 3.12 µg/mL (≈ 7.09 µM) | 25 µg/mL (≈ 56.8 µM) | 12.5 µg/mL | 50 µg/mL (≈ 114 µM) | 6.25 µg/mL (≈ 14.2 µM) | 3.12 µg/mL (≈ 7.09 µM) | – | – | – | – | Clc1ccc(OCCCCNC(Cn2cncn2)c2ccc(Cl)cc2Cl)cc1 (centres unmarked) [Compound 126]
12.5 µg/mL (≈ 26.3 µM) | 12,5 μg/ml | 6.25 µg/mL (≈ 13.2 µM) | 6.25 µg/mL (≈ 13.2 µM) | 3.12 µg/mL (≈ 6.56 µM) | 12.5 µg/mL (≈ 26.3 µM) | 3.12 µg/mL (≈ 6.56 µM) | 12.5 µg/mL (≈ 26.3 µM) | 6.25 µg/mL | 3.12 µg/mL (≈ 6.56 µM) | 3.12 µg/mL (≈ 6.56 µM) | 3.12 µg/mL (≈ 6.56 µM) | – | – | – | – | Clc1ccc(C(Cn2ccnc2)NCCCSc2c(Cl)cccc2Cl)c(Cl)c1 (centres unmarked) [Compound 112]
50 µg/mL (≈ 107 µM) | 25,0 μg/ml | 3.12 µg/mL (≈ 6.65 µM) | 0.78 µg/mL (≈ 1.66 µM) | 1.56 µg/mL (≈ 3.33 µM) | 1.56 µg/mL (≈ 3.33 µM) | 6.25 µg/mL (≈ 13.3 µM) | 6.25 µg/mL (≈ 13.3 µM) | 6.25 µg/mL | 6.25 µg/mL (≈ 13.3 µM) | 6.25 µg/mL (≈ 13.3 µM) | 6.25 µg/mL (≈ 13.3 µM) | – | – | – | – | CN(CCCSCc1ccc(Cl)cc1)C(Cn1ccnc1)c1ccc(Cl)cc1Cl (centres unmarked) [Compound 3, 1-(2-(2,4-Dichlorophenyl)-2-(N-methyl-3-(4-chlorobenzylthio)propylamino)ethyl)-1H-imidazole]
6.25 µg/mL (≈ 15.3 µM) | 0,78 μg/ml | 12.5 µg/mL (≈ 30.6 µM) | 3.12 µg/mL (≈ 7.64 µM) | 6.25 µg/mL (≈ 15.3 µM) | 12.5 µg/mL (≈ 30.6 µM) | 3.12 µg/mL (≈ 7.64 µM) | 0.78 µg/mL (≈ 1.91 µM) | 1.56 µg/mL | 3.12 µg/mL (≈ 7.64 µM) | 1.56 µg/mL (≈ 3.82 µM) | 1.56 µg/mL (≈ 3.82 µM) | – | – | – | – | Fc1ccc(OCCCNC(Cn2ccnc2)c2ccc(Cl)cc2Cl)cc1 (centres unmarked) [Compound 56]
6.25 µg/mL (≈ 13.3 µM) | 6,25 μg/ml | 6.25 µg/mL (≈ 13.3 µM) | 3.12 µg/mL (≈ 6.65 µM) | 0.78 µg/mL (≈ 1.66 µM) | 12.5 µg/mL (≈ 26.7 µM) | 3.12 µg/mL (≈ 6.65 µM) | 3.12 µg/mL (≈ 6.65 µM) | 0.78 µg/mL | 0.78 µg/mL (≈ 1.66 µM) | 3.12 µg/mL (≈ 6.65 µM) | 6.25 µg/mL (≈ 13.3 µM) | – | – | – | – | Clc1ccc(SCCCCCNC(Cn2ccnc2)c2ccc(Cl)cc2Cl)cc1 (centres unmarked) [Compound 132]
100 µg/mL (≈ 238 µM) | – | – | 50 µg/mL (≈ 119 µM) | 100 µg/mL (≈ 238 µM) | 50 µg/mL (≈ 119 µM) | 25 µg/mL (≈ 59.5 µM) | – | – | 100 µg/mL (≈ 238 µM) | – | 6.25 µg/mL (≈ 14.9 µM) | 50,0 μg/ml | 50,0 μg/ml | 25,0 μg/ml | 50,0 μg/ml | COc1ccc(OCCCNC(Cn2ccnc2)c2ccc(Cl)cc2Cl)cc1 (centres unmarked) [Compound 67]
